Paper PMC5699221 (Biochemistry, 2017)

Tests used:
PaODH = PaODH (Pseudomonas aeruginosa, UniProt Q9HUX5); assay: NADPH fluorescence, titrated with enzyme; type: binding
PaNAS = PaNAS (Pseudomonas aeruginosa, UniProt Q9HUX4); assay: biochemical
[1] = system: N[C@H](Cc1c[nH]cn1)C(=O)O; assay: purified protein; details: co-substrate SAM, coupled with SaODH, NADPH, pyruvate, 50 mM Tris pH 8

Chain of PaODH (Q9HUX5 whole entry): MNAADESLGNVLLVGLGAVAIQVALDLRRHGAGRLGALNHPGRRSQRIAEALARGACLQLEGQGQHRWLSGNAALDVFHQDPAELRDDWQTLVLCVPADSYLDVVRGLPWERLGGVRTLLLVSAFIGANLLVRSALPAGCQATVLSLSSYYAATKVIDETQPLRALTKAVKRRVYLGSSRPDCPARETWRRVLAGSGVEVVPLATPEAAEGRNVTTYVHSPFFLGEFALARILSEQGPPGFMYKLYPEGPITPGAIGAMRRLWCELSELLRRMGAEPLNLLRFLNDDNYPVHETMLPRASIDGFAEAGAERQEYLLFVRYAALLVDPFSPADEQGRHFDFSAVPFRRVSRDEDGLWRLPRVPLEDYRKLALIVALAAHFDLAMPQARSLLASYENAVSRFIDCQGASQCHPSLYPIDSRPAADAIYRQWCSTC
Chain of PaNAS (Q9HUX4 whole entry): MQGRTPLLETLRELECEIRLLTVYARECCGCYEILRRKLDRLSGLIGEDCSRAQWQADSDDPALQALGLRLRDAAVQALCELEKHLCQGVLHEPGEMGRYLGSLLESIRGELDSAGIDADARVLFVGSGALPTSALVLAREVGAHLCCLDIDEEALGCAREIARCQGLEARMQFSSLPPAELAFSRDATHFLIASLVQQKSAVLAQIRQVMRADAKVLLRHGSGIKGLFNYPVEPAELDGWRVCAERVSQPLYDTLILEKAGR

**Q.** NC(=O)C1=CN([C@@H]2O[C@H](COP(=O)(O)OP(=O)(O)OC[C@H]3O[C@@H](n4cnc5c(N)ncnc54)[C@H](OP(=O)(O)O)[C@@H]3O)[C@@H](O)[C@H]2O)C=CC1 [NADPH] was tested. Which Kd (PaODH) did it give?
**A.** 11 ± 1 µM

**Q.** For C[S+](CC[C@H](N)C(=O)O)C[C@H]1O[C@@H](n2cnc3c(N)ncnc32)[C@H](O)[C@@H]1O (stereo partly shown) [SAM], which Kd (PaNAS) is on record?
**A.** 1200 ± 300 nM

**Q.** For “SaNAS (Staphylococcus aureus subsp. aureus Mu50)”, which Km [1] is on record?
**A.** 13.0 ± 0.7 µM

**Q.** What about the kcat [1] of the same compound?
**A.** 1.79 ± 0.02 min⁻¹
